# Test results reported in the supplement of paper PMC11061612.
# Tests used:
# Experiment in all cases: combination Emax (second highest fraction inhibited in the dose matrix, 72 h); higher = more inhibition; extreme values may be limits of the assay
# [1] = system: 647-V (Bladder Carcinoma)
# Outline: (§1)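 After 24 hours at 37°C and 5% CO2 in 1536-well plates, cells in DMEM/F12 or RPMI plus 10% FBS received two-drug dose matrices for 72 hours. Viability came from CellTiter-Glo 2.0 luminescence and was scaled as inhibition, anchored at 0 by vehicle wells and at 1 by blank wells. Combination Emax is taken as the second-highest inhibition in the matrix, and Bliss excess as the observed combination effect less EA + EB − EA·EB, with EA and EB the single-agent effects.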
# A172 (Glioblastoma) = system: A172 (Glioblastoma)
# Outline: as §1
# [2] = system: BICR78 (Oral Cavity Carcinoma)
# Outline: as §1
# CS1 (Chondrosarcoma) = system: CS1 (Chondrosarcoma)
# Outline: as §1
# [3] = system: EFM-192A (Breast Carcinoma)
# Outline: as §1
# EW-22 (Ewing's Sarcoma) = system: EW-22 (Ewing's Sarcoma)
# Outline: as §1
# [4] = system: GDM-1 (Acute Myeloid Leukemia)
# Outline: as §1
# H4 (Low Grade Glioma) = system: H4 (Low Grade Glioma)
# Outline: as §1
# HuO9 (Osteosarcoma) = system: HuO9 (Osteosarcoma)
# Outline: as §1
# [5] = system: JHH-6 (Hepatocellular Carcinoma)
# Outline: as §1
# MCF7 (Breast Carcinoma) = system: MCF7 (Breast Carcinoma)
# Outline: as §1
# [6] = system: NCI-H1688 (Small Cell Lung Carcinoma)
# Outline: as §1
# [7] = system: NOMO-1 (Acute Myeloid Leukemia)
# Outline: as §1
# [8] = system: PA-TU-8902 (Pancreatic Carcinoma)
# Outline: as §1
# [9] = system: SK-LMS-1 (Other Solid Carcinomas)
# Outline: as §1
# [10] = system: SNG-M (Endometrial Carcinoma)
# Outline: as §1
# [11] = system: SW48 (Colorectal Carcinoma)
# Outline: as §1
# [12] = system: TYK-nu (Ovarian Carcinoma)
# Outline: as §1
# [13] = system: U-118-MG (Low Grade Glioma)
# Outline: as §1
# [14] = system: WSU-DLCL2 (B-Cell Non-Hodgkin's Lymphoma)
# Outline: as §1
SMILES,combination Emax [1],combination Emax (A172 (Glioblastoma)),combination Emax [2],combination Emax (CS1 (Chondrosarcoma)),combination Emax [3],combination Emax (EW-22 (Ewing's Sarcoma)),combination Emax [4],combination Emax (H4 (Low Grade Glioma)),combination Emax (HuO9 (Osteosarcoma)),combination Emax [5],combination Emax (MCF7 (Breast Carcinoma)),combination Emax [6],combination Emax [7],combination Emax [8],combination Emax [9],combination Emax [10],combination Emax [11],combination Emax [12],combination Emax [13],combination Emax [14]
"NC1(C(=O)N[C@@H](CCO)c2ccc(Cl)cc2)CCN(c2ncnc3[nH]ccc23)CC1 [Capivasertib] + COc1nnc2ccc(N3CCC(c4ccc(OCCN5CCN(C)C(=O)[C@H]5C)cc4)CC3)nn12 [AZD5153] (first compound max 10 µM, 7x7, partner max 1 µM)",0.502,0.472,0.636,0.455,0.504,0.834,0.79,0.744,0.841,0.645,0.754,0.406,1,0.326,0.609,0.749,0.828,0.632,0.658,1
"CS(=O)(=O)CCNCc1ccc(-c2ccc3ncnc(Nc4ccc(OCc5cccc(F)c5)c(Cl)c4)c3c2)o1 [Lapatinib] + C[C@@H](Oc1cc(-c2cnn(C3CCNCC3)c2)cnc1N)c1c(Cl)ccc(F)c1Cl [Crizotinib] (first compound max 10 µM, 7x7, partner max 10 µM)",0.906,0.941,0.918,0.797,0.878,0.887,0.913,0.944,0.982,0.683,0.981,0.742,0.828,0.775,0.864,0.955,0.911,0.719,0.491,0.924
"CC1(C)CCC(CN2CCN(c3ccc(C(=O)NS(=O)(=O)c4ccc(NCC5CCOCC5)c([N+](=O)[O-])c4)c(Oc4cnc5[nH]ccc5c4)c3)CC2)=C(c2ccc(Cl)cc2)C1 [Venetoclax] + C1CN(CCC1(C(=O)N[C@@H](CCO)C2=CC=C(C=C2)Cl)N)C3=NC=NC4=C3C=CN4 [Capivasertib] (first compound max 1 µM, 7x7, partner max 3 µM)",0.218,0.289,0.323,0.324,0.379,0.905,0.866,0.473,0.488,0.232,0.42,0.294,0.919,0.162,0.271,0.416,0.267,0.298,0.4,1
"CC(=O)c1c(C)c2cnc(Nc3ccc(N4CCNCC4)cn3)nc2n(C2CCCC2)c1=O [Palbociclib] + Cc1c2c(nn1C)CSCc1cc(n(C)n1)CSc1cc(c3ccccc3c1)OCCCc1c(C(=O)O)n(C)c3c-2c(Cl)ccc13 [AZD5991] (first compound max 10 µM, 7x7, partner max 1 µM)",0.117,0.614,0.232,0.304,0.436,0.515,0.824,0.601,0.803,0.338,0.574,0.381,0.858,0.283,0.282,0.485,0.409,0.405,0.322,0.991
"Cn1cnc2c(F)c(Nc3ccc(Br)cc3Cl)c(C(=O)NOCCO)cc21 [Selumetinib] + C[C@@H]1COCCN1C2=NC(=NC(=C2)C3(CC3)[S@](=N)(=O)C)C4=C5C=CNC5=NC=C4 [AZD6738] (first compound max 10 µM, 7x7, partner max 10 µM)",0.757,0.549,0.592,0.472,0.135,0.855,0.755,0.672,0.726,0.445,0.468,0.165,0.994,0.357,0.496,0.866,0.723,0.732,0.479,0.762
"COc1cccc(OCCCN)c1-c1cc(Nc2cnc(C#N)cn2)n[nH]1 [Prexasertib] + C[C@@H]1COCCN1C2=NC(=NC(=C2)C3(CC3)[S@](=N)(=O)C)C4=C5C=CNC5=NC=C4 [AZD6738] (first compound max 1 µM, 7x7, partner max 10 µM)",0.703,0.775,0.645,0.714,0.188,0.888,0.94,0.91,0.855,0.367,0.703,0.535,1,0.601,0.637,1,0.81,0.766,0.772,1
"CC1(C)CCC(CN2CCN(c3ccc(C(=O)NS(=O)(=O)c4ccc(NCC5CCOCC5)c([N+](=O)[O-])c4)c(Oc4cnc5[nH]ccc5c4)c3)CC2)=C(c2ccc(Cl)cc2)C1 [Venetoclax] + C[C@@H]1COCCN1C2=NC(=NC(=C2)C3(CC3)[S@](=N)(=O)C)C4=C5C=CNC5=NC=C4 [AZD6738] (first compound max 1 µM, 7x7, partner max 10 µM)",0.698,0.595,0.603,0.701,0.299,0.929,0.946,0.768,0.814,0.459,0.705,0.451,0.973,0.344,0.548,0.894,0.752,0.722,0.648,0.969
